# US8334236B2, “Ring-fused 2-pyridone derivatives and herbicides” (Kumiai Chemical Industry Co., Ltd., priority 2009, dated 2012)
# Assays:
# [1] = test system: Setaria viridis; assay: Test Example 2: herbicidal effects in farmland soil treatment; assay type: in vivo; parameters: scale not given here; conditions: 1000 g active ingredient per hectare, 21st day after treatment
# [2] = test system: Setaria viridis; assay: Test Example 3: herbicidal effects in farmland foliar treatment; assay type: in vivo; parameters: scale not given here; conditions: 1000 g active ingredient per hectare, 14th day after treatment
# [3] = test system: Scirpus juncoides Roxb. var. ohwianus. T. Koyama; assay: Test Example 1: herbicidal effects in paddy field soil treatment; assay type: in vivo; parameters: scale not given here; conditions: 1000 g active ingredient per hectare, 21st day after treatment
# Method: (§1) 100-cm^2 plastic pots were filled with paddy field soil. After puddling and leveling, seeds of Echinochloa oryzicola Vasing, Monochoria vaginalis (Burm. f.) Presl var. plantaginea (Roxb.) Solms-Laub., and Scirpus juncoides Roxb. var. ohwianus. T. Koyama were sowed in the pots, and the soil was waterlogged to a water depth of 3 cm. On the next day, a wettable powder formulation prepared according to Formulation Example 1 was diluted with water, and the dilution was added dropwise onto the water surface. The amount of application was an amount equivalent to 1000 g of the active ingredient per hectare. Thereafter, the plants were grown in a greenhouse, and on the 21st day after the treatment, the herbicidal effects were investigated according to the criteria described in Table 71.
# (§2) In addition, comparative compound A, comparative compound B, comparative compound C, and comparative compound D in the tables represent Compound Nos. 70, 34, 32, and 31, respectively, as described in EP-283261. The structural formulas of these compounds are presented below.
# [4] = test system: Monochoria vaginalis (Burm. f.) Presl var. plantaginea (Roxb.) Solms-Laub.; assay: as above; assay type: in vivo; parameters: scale not given here; conditions: 1000 g active ingredient per hectare, 21st day after treatment
# Method: as §1, §2
# [5] = test system: Echinochloa oryzicola Vasing; assay: as above; assay type: in vivo; parameters: scale not given here; conditions: 1000 g active ingredient per hectare, 21st day after treatment
# Method: as §1, §2
# [6] = test system: Abutilon theophrasti medicus; assay: Test Example 2: herbicidal effects in farmland soil treatment; assay type: in vivo; parameters: scale not given here; conditions: 1000 g active ingredient per hectare, 21st day after treatment
# Method: (§3) 80-cm^2 plastic pots were filled with farmland soil. Seeds of Abutilon theophrasti medicus and Amaranthus retroflexus were sowed in the pots, and soil was covered. A wettable powder formulation prepared according to Formulation Example 1 was diluted with water, and the dilution was uniformly sprayed on the soil surface with a small sprayer, in an amount equivalent to 1000 liters per hectare, such that 1000 g of the active ingredient was applied per hectare. Thereafter, the plants were grown in a greenhouse, and on the 21st day after the treatment, the herbicidal effects were investigated according to the criteria described in Table 71 shown above.
# [7] = test system: Amaranthus retroflexus; assay: as above; assay type: in vivo; parameters: scale not given here; conditions: 1000 g active ingredient per hectare, 21st day after treatment
# Method: as §3
# [8] = test system: Echinochloa crus-galli; assay: as above; assay type: in vivo; parameters: scale not given here; conditions: 1000 g active ingredient per hectare, 21st day after treatment
# [9] = test system: Echinochloa crus-galli (L.) P. Beauv. var. crus-galli; assay: Test Example 3: herbicidal effects in farmland foliar treatment; assay type: in vivo; parameters: scale not given here; conditions: 1000 g active ingredient per hectare, 14th day after treatment
# Method: (§4) 80-cm^2 plastic pots were filled with farmland soil. Seeds of Echinochloa crus-galli (L.) P. Beauv. var. crus-galli, Abutilon theophrasti medicus, and Amaranthus retroflexus were sowed in the pots, and the plants were grown for two weeks in a greenhouse. A wettable powder formulation prepared according to Formulation Example 1 was diluted with water, and the dilution was applied by foliar treatment by spraying with a small sprayer over the whole plant from the upper part, in an amount equivalent to 1000 liters per hectare, such that 1000 g of the active ingredient was applied per hectare. Thereafter, the plants were grown in a greenhouse, and on the 14th day after the treatment, the herbicidal effects were investigated according to the criteria described in Table 71 shown above.
# [10] = test system: Abutilon theophrasti medicus; assay: as above; assay type: in vivo; parameters: scale not given here; conditions: 1000 g active ingredient per hectare, 14th day after treatment
# Method: as §4
# [11] = test system: Amaranthus retroflexus; assay: as above; assay type: in vivo; parameters: scale not given here; conditions: 1000 g active ingredient per hectare, 14th day after treatment
# Method: as §4
Structure (SMILES),melting point [°C],"Herbicidal effect index, Setaria viridis [1]","Herbicidal effect index, Setaria viridis [2]","Herbicidal effect index, Scirpus juncoides [3]","Herbicidal effect index, Monochoria vaginalis [4]","Herbicidal effect index, Echinochloa oryzicola [5]","Herbicidal effect index, Abutilon thophrasti [6]","Herbicidal effect index, Amaranthus retroflexus [7]","Herbicidal effect index, Echinochloa crus-galli [8]","Herbicidal effect index, Echinochloa crus-galli [9]","Herbicidal effect index, Abutilon theoprasti [10]","Herbicidal effect index, Amaranthus retroflexus [11]"
"COc1ccc(-n2c(=O)c(C(=O)C3=C(O)CCCC3=O)cc3cccnc32)cn1 [II-92, 3-(2-hydroxy-6-oxo-1-cyclohexenecarbonyl)-1-(6-methoxy-3-pyridinyl)-1,8-naphthyridin-2(1H)-one]",220 to 222,4,5,5,5,5,5,5,5,5,5,5
"O=C1CCCC(O)=C1C(=O)c1cc2cccnc2n(-c2ccc3c(c2)OCCO3)c1=O [II-118, 1-(2,3-dihydrobenzo[b][1,4]dioxin-6-yl)-3-(2-hydroxy-6-oxo-1-cyclohexenecarbonyl)-1,8-naphthyridin-2(1H)-one]",226 to 228,5,5,5,5,5,5,5,5,5,5,5
"Cn1c(=O)c(C(=O)C2=C(O)CCCC2=O)cc2ccc(C(F)(F)F)nc21 [II-136, 3-(2-hydroxy-6-oxo-1-cyclohexenecarbonyl)-1-methyl-7-(trifluoromethyl)-1,8-naphthyridin-2(1H)-one]",194 to 196,4,4,5,5,5,4,5,5,5,5,5

# Further lines, with some results ahead:
melting point [°C],Structure (SMILES),"Herbicidal effect index, Setaria viridis [1]","Herbicidal effect index, Setaria viridis [2]","Herbicidal effect index, Scirpus juncoides [3]","Herbicidal effect index, Monochoria vaginalis [4]","Herbicidal effect index, Echinochloa oryzicola [5]","Herbicidal effect index, Abutilon thophrasti [6]","Herbicidal effect index, Amaranthus retroflexus [7]","Herbicidal effect index, Echinochloa crus-galli [8]","Herbicidal effect index, Echinochloa crus-galli [9]","Herbicidal effect index, Abutilon theoprasti [10]","Herbicidal effect index, Amaranthus retroflexus [11]"
151 to 153,"Cn1c(=O)c(C(=O)C2=C(O)CCCC2=O)cc2cccnc21 [II-2, 3-(2-hydroxy-6-oxo-1-cyclohexenecarbonyl)-1-methyl-1,8-naphthyridin-2(1H)-one]",5,4,5,5,5,5,5,5,5,5,5
108 to 110,"CCSCn1c(=O)c(C(=O)C2=C(O)CCCC2=O)cc2cccnc21 [II-19, 1-(ethylthiomethyl)-3-(2-hydroxy-6-oxo-1-cyclohexenecarbonyl)-1,8-naphthyridin-2(1H)-one]",4,5,5,5,5,5,5,4,5,5,5
212 to 214,"O=C1CCCC(O)=C1C(=O)c1cc2cccnc2n(-c2ccccc2)c1=O [II-41, 3-(2-hydroxy-6-oxo-1-cyclohexenecarbonyl)-1-phenyl-1,8-naphthyridin-2(1H)-one]",5,5,5,5,5,5,5,5,5,5,5
113 to 116,"Cc1cc(-n2c(=O)c(C(=O)C3=C(O)CCCC3=O)cc3cccnc32)no1 [II-63, 3-(2-hydroxy-6-oxo-1-cyclohexenecarbonyl)-1-(5-methyl-3-isoxazolyl)-1,8-naphthyridin-2(1H)-one]",3,5,5,5,5,5,5,4,5,5,5
